# Reference: PMC8147976, “Partitioning and Spatial Distribution of Drugs in Ocular Surface Tissues” (Pharmaceutics, 2021)
# Like-named read-outs stand apart in the source and are kept apart here.
# Key:
# [1] = Drug distribution in porcine ocular tissues ex vivo, comparison across tissues; type: in vitro ADME; details: for time to reach equilibrium in tissue: porcine tissues ex vivo, Figure 1
# Source text: Cornea. […] Bulbar conjunctiva.
# [2] = cited from earlier work
# [3] = de-epithelized vs intact cornea; ref [29],[46]; cited from earlier work
# [4] = for ratio of signal against twice the signal of propranolol, Epithelium 10 min / ratio of signal against twice the signal of propranolol, Epithelium 60 min: rabbit corneal epithelium; for ratio of signal against twice the signal of propranolol, Epithelium 10 min / ratio of signal against twice the signal of propranolol, Stroma 10 min: 10 min after eye drop; for ratio of signal against twice the signal of propranolol, Epithelium 10 min / ratio of signal against twice the signal of propranolol, Epithelium 60 min / ratio of signal against twice the signal of propranolol, Stroma 10 min / ratio of signal against twice the signal of propranolol, Stroma 60 min: MALDI-IMS; for ratio of signal against twice the signal of propranolol, Epithelium 60 min / ratio of signal against twice the signal of propranolol, Stroma 60 min: 60 min after eye drop; for ratio of signal against twice the signal of propranolol, Stroma 10 min / ratio of signal against twice the signal of propranolol, Stroma 60 min: rabbit corneal stroma
# Method: Three months old female New Zealand White rabbits, 2.5–2.8 kg (Envigo Laboratories, Blackthron, Bicester, UK), were used in the study to determine the distribution of drugs in the cornea. […] The rabbits were sacrificed by injecting a lethal dose (2 mL/kg) of pentobarbital (Mebunat vet 60 mg/mL; Orion Pharma, Finland) into the marginal ear vein at 10, 20, and 60 min post-dosing. The eyes were removed and snap-frozen with liquid nitrogen in plastic tubes and stored at −80 °C until sample preparation and analysis with MALDI-IMS.
# The frozen eyes were mounted onto a chuck using an optimal cutting temperature compound (Sakura Finetek, Torrance, CA, USA). The samples were sectioned to 20 μm or 35 μm thickness at −20 °C on a Leica CM Cryostat (S3050, Leica Microsystems GmbH, Wetzlar, Germany) and collected on a cryo-film (3C16UF, SECTION-LAB Co. Ltd., Yokohama, Japan) by a modified Kawamoto method. The film was subsequently mounted onto a microscope glass slide using a double-sided copper tape, and the sample slides were dried in a lyophilization chamber. The slides were washed twice with 50 mM ammonium formate for 10 s and dried in a vacuum desiccator. The sample slides contained sections from three eyes from the eye drop experiment and three blanks. The matrix α-cyano-4hydroxycinnamic acid (CHCA) (7 mg/mL in 50% acetonitrile containing 1% trifluoro acetic acid) (Sigma-Aldrich, St. Louis, MO, USA) was added via spray deposition using 10 passes, flow rate of 100 μL/min, temperature of 77 °C, track spacing of 2.5 mm, and velocity of 1300 mm/min (TM-Sprayer, HTX Technologies, Chapel Hill, NC, USA).
# Fourier transform-ion cyclotron resonance (FT-ICR) MALDI-IMS was performed using a Bruker 7T SolariX XR mass spectrometer (Bruker Daltonics, Bremen, Germany) at 50 μm spatial resolution for the corneal area and 150 μm spatial resolution for the rest of the eye. […] MALDI images of each signal were plotted with a 5 mDa mass window using flexImaging^TM software (v4.1, Bruker Daltonics, Bremen, Germany) with datasets normalized by the RMS method and pixel interpolation.
# The data for calculation was obtained by taking six crosscuts through the cornea; no normalization was used.
# [5] = ex vivo, 180 min epithelial side exposure, donor 2 ng/µL
# [6] = ex vivo, 180 min epithelial side exposure, donor 2 ng/µL; remark: listed apart in the source
# [7] = ex vivo, 180 min epithelial side exposure, donor 2 ng/µL; remark: listed apart in the source
# [8] = in vitro; details: pig, pH 7.4
# [9] = design: method as in PMID 3246568; details: inferior drug insert application, rabbit; ref [56]; cited from earlier work
# [10] = n-octanol/buffer solution distribution coefficient at pH 7.4, ref [10],[44]
smiles,measurement,setting,value
CC(C)NCC(O)COc1ccc(CC(N)=O)cc1 (stereo not drawn) [Atenolol],"difference in concentration between corneal epithelium, corneal stroma and conjunctiva",[1]; ex vivo,two-fold
same,time to reach equilibrium in tissue,[1],≈ 30 min
CC(C)NCC(O)COc1ccc(CCOCC2CC2)cc1 (stereo not drawn) [Betaxolol],time to reach equilibrium in tissue,[1],≈ 60 min
same,Log D7.4,[2]; as listed in Table S2,0.43
same,Log D7.4,[2]; [10],0.43
same,change of permeability in de-epithelized corneas,[3],only modest or no changes
COCCc1ccc(OCC(O)CNC(C)C)cc1 (stereo not drawn) [Metoprolol],Log D7.4,[2]; as listed in Table S2,−0.5
CC(C)(C)NCC(O)COc1cccc2c1CC(O)C(O)C2 (stereo not drawn) [Nadolol],time to reach equilibrium in tissue,[1],≈ 30 min
same,Log D7.4,[2]; [10],−1.54
CC(C)NCC(O)COc1cccc2[nH]ccc12 (stereo not drawn) [Pindolol],"ratio of signal against twice the signal of propranolol, Epithelium 10 min",[4],0.21 ± 0.01
same,"ratio of signal against twice the signal of propranolol, Epithelium 60 min",[4],0.356± 0.08
same,"ratio of signal against twice the signal of propranolol, Stroma 10 min",[4],0.57 ± 0.00
same,"ratio of signal against twice the signal of propranolol, Stroma 60 min",[4],0.83 ± 0.13
same,Log D7.4,[2]; as listed in Table S2,0.06
same,Log D7.4,[2]; [10],−0.5
CC(C)NCC(O)COc1cccc2ccccc12 (stereo not drawn) [Propranolol],time to reach equilibrium in tissue,[1],≈ 60 min
same,MALDI-IMS signal intensity in corneal tissues and aqueous humor,"[4]; rabbit, in vivo",highest intensity
same,concentration in corneal epithelium,[5],9.46 ng/mg tissue
same,concentration in corneal stroma,[6],0.83 ng/mg
same,concentration in conjunctiva,[7],1.24 ng/mg
same,"Kp at 3 h, 2 µg/mL",[8],4.7
same,change of permeability in de-epithelized corneas,[3],only modest or no changes
CC(C)(C)NC[C@H](O)COc1nsnc1N1CCOCC1 [Timolol],time to reach equilibrium in tissue,[1],≈ 30 min
same,"ratio of signal against twice the signal of propranolol, Epithelium 10 min",[4],0.19 ± 0.02
same,"ratio of signal against twice the signal of propranolol, Epithelium 60 min",[4],0.25 ± 0.08
same,"ratio of signal against twice the signal of propranolol, Stroma 10 min",[4],0.36 ± 0.01
same,"ratio of signal against twice the signal of propranolol, Stroma 60 min",[4],0.45 ± 0.17
same,MALDI-IMS signal in corneal tissues and aqueous humor,"[4]; rabbit, in vivo",below the limit of detection in many pixels
same,Log D7.4,[2]; [10],−1.43
same,timolol levels in the inferior relative to the superior cornea,[9],4–6 fold
